Tests used:
[1] = target: T1, Serine/threonine-protein kinase Chk1 (Homo sapiens, UniProt O14757); assay: Inhibition of recombinant His-tagged CHK1 using biotin-RSGLYRSPSMPENLNRPR as substrate after 1 hr by scintillation proximity assay
T1 sequence (O14757 whole entry): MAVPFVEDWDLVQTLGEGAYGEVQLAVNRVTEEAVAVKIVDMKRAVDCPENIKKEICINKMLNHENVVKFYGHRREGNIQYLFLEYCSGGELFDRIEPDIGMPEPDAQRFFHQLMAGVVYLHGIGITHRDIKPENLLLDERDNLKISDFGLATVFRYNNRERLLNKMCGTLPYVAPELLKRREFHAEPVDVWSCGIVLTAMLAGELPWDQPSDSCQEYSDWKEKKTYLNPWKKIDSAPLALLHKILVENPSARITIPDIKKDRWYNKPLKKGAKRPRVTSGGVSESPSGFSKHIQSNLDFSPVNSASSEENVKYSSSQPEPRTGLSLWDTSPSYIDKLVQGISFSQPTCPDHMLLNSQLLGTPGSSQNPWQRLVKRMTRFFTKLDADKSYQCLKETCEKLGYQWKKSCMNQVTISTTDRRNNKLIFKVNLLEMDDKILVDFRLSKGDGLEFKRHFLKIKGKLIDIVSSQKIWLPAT

[2] = Selectivity ratio of IC50 for cyclinE/CDK2 to IC50 for CHK1
[3] = target: T1, Serine/threonine-protein kinase Chk1; assay: Inhibition of CHK1 in human U2OS cells pretreated with hydroxyurea assessed as gamma-H2AX level after 2 hrs by immunofluorescence assay; format: cell-based
[4] = target: T1, Serine/threonine-protein kinase Chk1; assay: Binding affinity to CHK1 by affinity-selection-mass […] assay
[5] = target: Cyclin-dependent kinase 2/cyclin E1 (Homo sapiens, UniProt P24941); assay: Inhibition of Cyclin E/CDK2 expressed in Sf9 cells using [33gamma]ATP after 1 hr by liquid scintillation counter

IC50 [1] [nM]	Ratio IC50 [2]	EC50 [3] [nM]	Kd [4] [nM]	IC50 [5] [nM]	SMILES
280					CC1CNCCN1c1ccccc1NC(=O)c1csc(-c2ccc3c(c2)CCO3)n1 (stereo unspecified)
210	5				O=C(Nc1ccccc1N1CCNCC1)c1csc(-c2ccsc2)n1
4100	0.34				CC(=O)N1CCN(c2ccccc2NC(=O)c2csc(-c3ccc4c(c3)CCO4)n2)CC1
5	380	2500			O=C(Nc1ccccc1N1CCNCC1)c1csc(-c2ccc3sccc3c2)n1
3400					O=C(Nc1ccccc1N1CCNCC1)c1cc(-c2ccc3c(c2)OCO3)on1
130					O=C(Nc1ccccc1N1CCNCC1)c1csc(-c2ccc(-c3cccs3)s2)n1
1200					O=C(Nc1ccccc1N1CCNCC1)c1csc(-c2ccc[nH]2)n1
87	12				O=C(Nc1ccccc1N1CCNCC1)c1csc(-c2ccccc2)n1
110	33				O=C(Nc1ccccc1N1CCNCC1)c1csc(-c2cc[nH]n2)n1
4500	1.8				O=C(Nc1ccccc1C1CCNCC1)c1csc(-c2ccc3c(c2)CCO3)n1
86	3				C[C@H]1CN(c2ccccc2NC(=O)c2csc(-c3ccc4c(c3)CCO4)n2)CCN1
170	18				O=C(Nc1ccccc1N1CCNCC1)c1csc(-c2ccc3c(c2)OCO3)n1
> 50000					O=C(Nc1ccccc1N1CCNCC1=O)c1csc(-c2ccc3c(c2)CCO3)n1
4	960	3500			O=C(Nc1ccccc1N1CCNCC1)c1csc(-c2ccc3[nH]ccc3c2)n1
21000					Cc1nc(-c2ccc3c(c2)CCO3)sc1C(=O)Nc1ccccc1N1CCNCC1
2000	0.16				CN1CCN(c2ccccc2NC(=O)c2csc(-c3ccc4c(c3)CCO4)n2)CC1
190	0.67				O=C(Nc1ccccc1N1CCNCC1)c1csc(-c2cn[nH]c2)n1
1500	0.54				O=C(Nc1ccccc1N1CCNCC1)c1csc(-c2ccncc2)n1
19	27	2000			O=C(Nc1ccccc1N1CCNCC1)c1csc(-c2ccc3occc3c2)n1
100					O=C(Nc1ccccc1N1CCNCC1)c1csc(-c2cc[nH]c2)n1
> 50000					CN(C)Cc1ccc(-c2nc(C(=O)Nc3ccccc3N3CCNCC3)cs2)cc1
5	3600	> 50000			O=C(Nc1ccccc1N1CCNCC1)c1csc(-c2ccc(Oc3ccccc3)cc2)n1

More lines, now with the values behind:

SMILES	IC50 [1] [nM]	Ratio IC50 [2]	EC50 [3] [nM]	Kd [4] [nM]	IC50 [5] [nM]
COc1ccc(-c2nc(C(=O)Nc3ccccc3N3CCNCC3)cs2)cc1C	580	12			
COc1ccc(-c2nc(C(=O)Nc3ccccc3N3CCNCC3)cs2)cc1	72	5			
O=C(Nc1ccccc1C1=CCNCC1)c1csc(-c2ccc3c(c2)CCO3)n1	760	1.7			
O=C(Nc1ccccc1N1CCNCC1)c1csc(-c2ccc(-c3ccccc3)s2)n1	89				
O=C(Nc1ccccc1N1CCNCC1)c1csc(-c2csc3ccccc23)n1	69	6			
O=C(Nc1ccccc1N1CCNCC1)c1csc(C#Cc2ccccc2)n1	440	32			
O=C(Nc1ccccc1N1CCNCC1)c1csc(-c2ccc3c(c2)OCCCO3)n1	190				
O=C(Nc1ccccc1N1CCNCC1)c1csc(-c2ccc3c(c2)CCO3)n1	75	2.7	10000	< 100	210
O=C(Nc1ccccc1N1CCNCC1)c1csc(-c2cc3ccccc3s2)n1	7	33	1500		
O=C(Nc1ccccc1N1CCNCC1)c1nc(-c2ccc3c(c2)CCO3)cs1	> 50000				
COc1ccc(-c2nc(C(=O)Nc3ccccc3N3CCNCC3)cs2)cc1OC	520	6.6			
N#Cc1ccc(-c2nc(C(=O)Nc3ccccc3N3CCNCC3)cs2)cn1	5200				
CN(C)c1ccc(-c2nc(C(=O)Nc3ccccc3N3CCNCC3)cs2)cc1	19	73			
O=C1CN(c2ccccc2NC(=O)c2csc(-c3ccc4c(c3)CCO4)n2)CCN1	> 50000				
O=C(Nc1ccccc1N1CCNCC1)c1csc(-c2cccnc2)n1	1400	0.8			
C[C@@H]1CN(c2ccccc2NC(=O)c2csc(-c3ccc4c(c3)CCO4)n2)CCN1	120	2			
O=C(Nc1ccccc1N1CCNCC1)c1csc(-c2cccs2)n1	36	16			
CC#Cc1nc(C(=O)Nc2ccccc2N2CCNCC2)cs1	3900				
O=C(Nc1ccccc1N1CCOCC1)c1csc(-c2ccc3c(c2)CCO3)n1	> 50000				
O=C(Nc1ccccc1N1CCNCC1)c1csc(-c2cncnc2)n1	13000				
